Assay results reported in patent US20240116921A1, “LACTAM (HETERO)[…] DERIVATIVES AS INHIBITORS OF ERBB2” (EnLiven Therapeutics, Inc., priority 2020, published 2024).

How the values were obtained:
[1] = molecular target: T1, phosphorylated EGFR (pEGFR) (Homo sapiens, UniProt P00533); experiment: Detection of phosphorylated EGFR (pEGFR) in EGF-stimulated A431 cells; assay type: cell-based; conditions: A431 cells (10% FBS), 4 hours incubation, EGF 30 ng/mL 10 minutes, AlphaLISA
T1 construct: performed to measure phosphorylated EGFR levels using A431 cells (10% FBS); endogenous in cells; host or cells: A431
T1 sequence (P00533 25-1210): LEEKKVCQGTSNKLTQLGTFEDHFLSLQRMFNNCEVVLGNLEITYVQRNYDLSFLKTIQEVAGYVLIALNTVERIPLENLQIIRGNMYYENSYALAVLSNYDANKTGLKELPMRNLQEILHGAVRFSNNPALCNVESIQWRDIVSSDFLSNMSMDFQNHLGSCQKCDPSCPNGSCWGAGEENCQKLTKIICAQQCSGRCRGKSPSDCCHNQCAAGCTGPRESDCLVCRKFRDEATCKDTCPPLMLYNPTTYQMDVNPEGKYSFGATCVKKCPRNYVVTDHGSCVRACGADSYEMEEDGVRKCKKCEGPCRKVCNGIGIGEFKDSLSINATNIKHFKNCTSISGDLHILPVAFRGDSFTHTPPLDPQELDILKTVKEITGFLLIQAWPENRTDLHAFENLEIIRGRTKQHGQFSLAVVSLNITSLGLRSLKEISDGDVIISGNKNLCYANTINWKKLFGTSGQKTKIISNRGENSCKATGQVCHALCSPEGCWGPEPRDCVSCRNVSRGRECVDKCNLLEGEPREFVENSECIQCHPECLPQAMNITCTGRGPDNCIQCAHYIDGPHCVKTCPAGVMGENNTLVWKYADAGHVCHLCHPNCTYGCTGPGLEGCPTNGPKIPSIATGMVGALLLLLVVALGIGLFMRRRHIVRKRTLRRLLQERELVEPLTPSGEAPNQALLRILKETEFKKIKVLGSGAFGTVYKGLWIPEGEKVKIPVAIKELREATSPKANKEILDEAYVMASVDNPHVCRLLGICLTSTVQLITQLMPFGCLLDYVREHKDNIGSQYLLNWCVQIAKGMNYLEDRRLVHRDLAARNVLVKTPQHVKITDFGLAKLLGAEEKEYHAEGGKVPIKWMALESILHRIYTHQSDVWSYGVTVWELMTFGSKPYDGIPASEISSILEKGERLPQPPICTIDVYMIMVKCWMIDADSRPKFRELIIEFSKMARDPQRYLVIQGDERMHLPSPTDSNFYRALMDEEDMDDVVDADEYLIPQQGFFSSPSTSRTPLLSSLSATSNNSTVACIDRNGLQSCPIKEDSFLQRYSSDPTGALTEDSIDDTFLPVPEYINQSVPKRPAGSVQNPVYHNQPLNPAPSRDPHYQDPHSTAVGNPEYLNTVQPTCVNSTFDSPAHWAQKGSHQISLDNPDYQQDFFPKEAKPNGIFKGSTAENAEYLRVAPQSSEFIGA
In short: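 A431 cells in 10% FBS were preincubated with compound for 4 h at 37 °C, then stimulated with EGF (30 ng/mL final) for 10 min. pEGFR in lysates was read by AlphaLISA. % inhibition was calculated against DMSO and staurosporine-treated controls, and IC50 came from a four-parameter curve fit.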

[2] = molecular target: T2, phosphorylated ERBB2 (pERBB2) (Homo sapiens, UniProt P04626); experiment: Detection of phosphorylated ERBB2 (pERBB2) by ELISA in BT-474 cells; assay type: cell-based; conditions: four hours incubation
T2 construct: endogenous in cells; host or cells: BT-474
T2 sequence (P04626 23-1255): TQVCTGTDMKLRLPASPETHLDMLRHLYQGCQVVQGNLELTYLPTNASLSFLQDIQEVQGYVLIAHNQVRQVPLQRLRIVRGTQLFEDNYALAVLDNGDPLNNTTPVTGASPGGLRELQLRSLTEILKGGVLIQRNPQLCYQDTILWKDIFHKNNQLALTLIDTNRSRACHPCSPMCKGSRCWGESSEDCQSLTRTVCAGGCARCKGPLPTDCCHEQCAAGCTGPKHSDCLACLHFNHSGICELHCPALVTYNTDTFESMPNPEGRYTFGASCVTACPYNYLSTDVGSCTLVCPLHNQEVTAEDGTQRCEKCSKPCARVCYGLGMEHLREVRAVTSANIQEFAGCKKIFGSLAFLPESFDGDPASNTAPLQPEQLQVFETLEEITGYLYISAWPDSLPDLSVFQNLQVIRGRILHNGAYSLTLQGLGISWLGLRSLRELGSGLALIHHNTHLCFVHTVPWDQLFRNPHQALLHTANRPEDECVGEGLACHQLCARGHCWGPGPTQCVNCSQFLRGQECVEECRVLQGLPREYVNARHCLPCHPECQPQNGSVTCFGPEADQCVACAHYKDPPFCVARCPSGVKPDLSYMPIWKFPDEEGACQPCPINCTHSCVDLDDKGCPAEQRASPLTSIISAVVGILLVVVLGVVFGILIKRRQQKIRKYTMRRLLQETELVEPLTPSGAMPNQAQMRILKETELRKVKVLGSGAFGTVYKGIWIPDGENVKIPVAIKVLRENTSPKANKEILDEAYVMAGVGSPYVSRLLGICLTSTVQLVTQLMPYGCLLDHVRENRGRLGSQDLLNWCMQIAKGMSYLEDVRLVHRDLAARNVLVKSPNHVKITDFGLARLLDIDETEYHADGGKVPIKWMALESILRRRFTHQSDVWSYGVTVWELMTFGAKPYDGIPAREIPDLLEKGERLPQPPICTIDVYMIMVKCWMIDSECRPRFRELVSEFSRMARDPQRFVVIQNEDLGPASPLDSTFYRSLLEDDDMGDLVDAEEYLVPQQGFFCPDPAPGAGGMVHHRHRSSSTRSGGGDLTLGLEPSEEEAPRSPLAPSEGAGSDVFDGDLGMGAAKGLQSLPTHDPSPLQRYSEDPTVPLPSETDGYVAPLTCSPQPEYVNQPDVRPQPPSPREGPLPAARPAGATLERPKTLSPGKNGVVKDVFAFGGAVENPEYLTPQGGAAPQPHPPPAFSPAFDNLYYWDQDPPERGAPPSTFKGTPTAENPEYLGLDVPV
In short: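 BT-474 cells (2.0×10^4/well) treated 4 h at 37 °C, 5% CO2 with compounds in four-fold dilutions from 10 µM to 0.01 nM. Lysate pERBB2 measured by ELISA with TMB read at 450 nm; % relative activity scaled between no-cell wells and 0.1% DMSO-treated cells.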

[3] = molecular target: Ba/F3 ERBB2 A775_G776insYVMA (Homo sapiens, UniProt P04626, DUP772-775, cells depend on it); experiment: Cell viability assay, Ba/F3 ERBB2 A775_G776insYVMA; assay type: cell-based, mouse; conditions: Ba/F3 ERBB2 YVMA cells, cell viability, 72 hours, CellTiter Glo; Table B5; read-out: Ba/F3 ERBB2 YVMA, IC50
Sequence of Ba/F3 ERBB2 A775_G776insYVMA (P04626 with tags, fused parts or gaps DUP772-775): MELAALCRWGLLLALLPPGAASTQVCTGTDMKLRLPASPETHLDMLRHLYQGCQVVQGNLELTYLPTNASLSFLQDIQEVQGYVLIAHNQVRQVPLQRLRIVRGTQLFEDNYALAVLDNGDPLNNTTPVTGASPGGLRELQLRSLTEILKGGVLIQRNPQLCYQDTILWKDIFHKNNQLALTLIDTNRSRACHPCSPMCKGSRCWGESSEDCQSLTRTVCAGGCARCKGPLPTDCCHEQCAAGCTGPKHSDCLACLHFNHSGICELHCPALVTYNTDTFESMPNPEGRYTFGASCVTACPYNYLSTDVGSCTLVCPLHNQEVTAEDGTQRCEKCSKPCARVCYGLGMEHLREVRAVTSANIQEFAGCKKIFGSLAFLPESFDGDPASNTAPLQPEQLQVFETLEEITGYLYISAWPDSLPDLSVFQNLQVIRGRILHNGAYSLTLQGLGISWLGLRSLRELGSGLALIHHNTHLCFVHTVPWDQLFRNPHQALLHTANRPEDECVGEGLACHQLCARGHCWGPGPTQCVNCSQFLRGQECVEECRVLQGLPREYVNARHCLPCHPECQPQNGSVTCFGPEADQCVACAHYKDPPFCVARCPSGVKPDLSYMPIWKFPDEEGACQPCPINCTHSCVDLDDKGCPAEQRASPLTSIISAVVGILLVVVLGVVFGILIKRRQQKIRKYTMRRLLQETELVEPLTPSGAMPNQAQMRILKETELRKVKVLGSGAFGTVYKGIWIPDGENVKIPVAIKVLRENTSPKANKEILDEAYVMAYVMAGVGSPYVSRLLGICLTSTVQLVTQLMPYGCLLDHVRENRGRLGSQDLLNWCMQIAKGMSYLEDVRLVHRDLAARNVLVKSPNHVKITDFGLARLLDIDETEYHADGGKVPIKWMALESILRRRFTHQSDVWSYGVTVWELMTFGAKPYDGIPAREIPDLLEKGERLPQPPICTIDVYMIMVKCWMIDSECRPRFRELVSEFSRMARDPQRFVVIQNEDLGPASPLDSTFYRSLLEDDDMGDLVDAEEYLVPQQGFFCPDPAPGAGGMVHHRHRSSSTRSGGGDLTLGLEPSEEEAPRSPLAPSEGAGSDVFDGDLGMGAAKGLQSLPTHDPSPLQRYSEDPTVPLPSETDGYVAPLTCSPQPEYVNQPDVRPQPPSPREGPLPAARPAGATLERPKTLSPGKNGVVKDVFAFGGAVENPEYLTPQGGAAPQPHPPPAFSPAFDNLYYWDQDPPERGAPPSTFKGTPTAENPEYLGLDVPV
In short: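 IL-3-independent Ba/F3 lines stably expressing the human ERBB2 insertion mutants were seeded at 3000 cells/well and exposed to compounds for 72 h at 37 °C, 5% CO2. Viability was read as ATP by CellTiter-Glo luminescence. Curves were fitted by sigmoidal nonlinear regression.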

SMILES | IC50 [1] | IC50 [2] | GI50 [3]
CN(C)C/C=C1\CCN(c2ccc3ncnc(Nc4ccc(Oc5ccc6c(c5)ncn6C)cc4)c3n2)C1=O [Compound 92, (3E)-3-[2-(dimethylamino)ethylidene]-1-[4-({4-[(1-methyl-1,3-benzodiazol-5-yl)oxy]phenyl}amino)pyrido[3,2-d]pyrimidin-6-yl]pyrrolidin-2-one] | > 10000 nM | 21.3 nM | 3.12 nM
C=C1CCCN(c2ccc3ncnc(Nc4ccc(Oc5ccn6ncnc6c5)c(C)c4)c3n2)C1=O [Compound 95, 1-(4-((4-([1,2,4]triazolo[1,5-a]pyridin-7-yloxy)-3-methylphenyl)amino)pyrido[3,2-d]pyrimidin-6-yl)-3-methylenepiperidin-2-one] | 476 nM | 12.2 nM | 5.2 nM
C=C1CCCN(c2ccc3ncnc(Nc4ccc(Oc5ccc6c(c5)ncn6C)c(C)c4)c3n2)C1=O [Compound 96, 1-[4-({3-methyl-4-[(1-methyl-1,3-benzodiazol-5-yl)oxy]phenyl}amino)pyrido[3,2-d]pyrimidin-6-yl]-3-methylidenepiperidin-2-one] | 794 nM | 22.8 nM | 18.6 nM
CN(C)C/C=C1\CCN(c2ccc3ncnc(Nc4ccc(Oc5ccc6c(c5)ncn6C)c(Cl)c4)c3n2)C1=O [Compound 98, (E)-1-(4-((3-chloro-4-((1-methyl-1H-benzo[d]imidazol-5-yl)oxy)phenyl)amino)pyrido[3,2-d]pyrimidin-6-yl)-3-(2-(dimethylamino)ethylidene)pyrrolidin-2-one] | 942 nM | 40.3 nM | 1.81 nM
CN(C)C/C=C1\CCN(c2ccc3ncnc(Nc4ccc(Oc5ccc6c(c5)ncn6C)cc4F)c3n2)C1=O [Compound 99, (3E)-3-[2-(dimethylamino)ethylidene]-1-[4-({2-fluoro-4-[(1-methyl-1,3-benzodiazol-5-yl)oxy]phenyl}amino)pyrido[3,2-d]pyrimidin-6-yl]pyrrolidin-2-one] | > 10000 nM | 38.8 nM | 6.64 nM
CNC/C=C1\CCN(c2ccc3ncnc(Nc4ccc(Oc5ccc6c(c5)ncn6C)c(C)c4)c3n2)C1=O [Compound 100, (3E)-1-[4-({3-methyl-4-[(1-methyl-1,3-benzodiazol-5-yl)oxy]phenyl}amino)pyrido[3,2-d]pyrimidin-6-yl]-3-[2-(methylamino)ethylidene]pyrrolidin-2-one; formic acid] | 157 nM | 57.7 nM | 3.19 nM
Cc1cc(Nc2ncnc3cnc(N4CC/C(=C\CN(C)C)C4=O)cc23)ccc1Oc1ccc2c(c1)nnn2C [Compound 101, (E)-3-(2-(dimethylamino)ethylidene)-1-(4-((3-methyl-4-((1-methyl-1H-benzo[d][1,2,3]triazol-5-yl)oxy)phenyl)amino)pyrido[3,4-d]pyrimidin-6-yl)pyrrolidin-2-one] | 1160 nM | 22.3 nM | 4.32 nM
Cc1cc(Nc2ncnc3cnc(N4CC/C(=C\CN5CCC5)C4=O)cc23)ccc1Oc1ccn2ncnc2c1 [Compound 102, (E)-1-(4-((4-([1,2,4]triazolo[1,5-a]pyridin-7-yloxy)-3-methylphenyl)amino)pyrido[3,4-d]pyrimidin-6-yl)-3-(2-(azetidin-1-yl)ethylidene)pyrrolidin-2-one] | 3010 nM | 8.26 nM | 7.51 nM
[2H]C([2H])([2H])N(C/C=C1\CCN(c2ccc3ncnc(Nc4ccc(Oc5ccc6c(c5)ncn6C)c(C)c4)c3n2)C1=O)C([2H])([2H])[2H] [Compound 105, (E)-3-(2-(bis(methyl-d3)amino)ethylidene)-1-(4-((3-methyl-4-((1-methyl-1H-benzo[d]imidazol-5-yl)oxy)phenyl)amino)pyrido[3,2-d]pyrimidin-6-yl)pyrrolidin-2-one] | 503 nM | 43.7 nM | 2.17 nM
[2H]C([2H])([2H])N(C/C=C1\CCN(c2ccc3ncnc(Nc4ccc(Oc5ccc6c(c5)ncn6C([2H])([2H])[2H])c(C)c4)c3n2)C1=O)C([2H])([2H])[2H] [Compound 106, (E)-3-(2-(bis(methyl-d3)amino)ethylidene)-1-(4-((3-methyl-4-((1-(methyl-d3)-1H-benzo[d]imidazol-5-yl)oxy)phenyl)amino)pyrido[3,2-d]pyrimidin-6-yl)pyrrolidin-2-one] | 1690 nM | 28.2 nM | 2.99 nM
Cc1cc(Nc2ncnc3cnc(N4CC/C(=C\CN(C)C)C4=O)cc23)ccc1Oc1ccn2nnnc2c1 [Compound 107, (3E)-3-[2-(dimethylamino)ethylidene]-1-{4-[(3-methyl-4-{[1,2,3,4]tetrazolo[1,5-a]pyridin-7-yloxy}phenyl)amino]pyrido[3,4-d]pyrimidin-6-yl}pyrrolidin-2-one] | > 10000 nM | 21.6 nM | 81.3 nM
Cc1cc(Nc2ncnc3ccc(N4CC/C(=C\CN(C)C)C4=O)nc23)ccc1Oc1ccn2nnnc2c1 [Compound 108, (3E)-3-[2-(dimethylamino)ethylidene]-1-{4-[(3-methyl-4-{[1,2,3,4]tetrazolo[1,5-a]pyridin-7-yloxy}phenyl)amino]pyrido[3,2-d]pyrimidin-6-yl}pyrrolidin-2-one] | 3410 nM | 13.2 nM | 11.1 nM
Cc1cc(Nc2ncnc3ccc(N4CC/C(=C\[C@H](C)N(C)C)C4=O)nc23)ccc1Oc1ccn2ncnc2c1 [Compound 113, (S,E)-1-(4-((4-([1,2,4]triazolo[1,5-a]pyridin-7-yloxy)-3-methylphenyl)amino)pyrido[3,2-d]pyrimidin-6-yl)-3-(2-(dimethylamino)propylidene)pyrrolidin-2-one] | > 10000 nM | 327 nM | > 500 nM
Cc1cc(Nc2ncnc3ccc(N4CC/C(=C\[C@@H](C)N(C)C)C4=O)nc23)ccc1Oc1ccn2ncnc2c1 [Compound 114, (R,E)-1-(4-((4-([1,2,4]triazolo[1,5-a]pyridin-7-yloxy)-3-methylphenyl)amino)pyrido[3,2-d]pyrimidin-6-yl)-3-(2-(dimethylamino)propylidene)pyrrolidin-2-one] | > 10000 nM | 31.1 nM | 24.3 nM
[2H]C([2H])([2H])n1nnc2cc(Oc3ccc(Nc4ncnc5ccc(N6CC/C(=C\CN(C)C)C6=O)nc45)cc3C)ccc21 [Compound 117, (E)-3-(2-(dimethylamino)ethylidene)-1-(4-((3-methyl-4-((1-(methyl-d3)-1H-benzo[d][1,2,3]triazol-5-yl)oxy)phenyl)amino)pyrido[3,2-d]pyrimidin-6-yl)pyrrolidin-2-one] | > 10000 nM | 19.2 nM | 2 nM
Cc1cc(Nc2ncnc3ccc(N4CC/C(=C\CN(C)C)C4=O)nc23)ccc1Oc1ccc2[nH]cnc2c1 [Compound 118, (3E)-1-(4-{[4-(1H-1,3-benzodiazol-5-yloxy)-3-methylphenyl]amino}pyrido[3,2-d]pyrimidin-6-yl)-3-[2-(dimethylamino)ethylidene]pyrrolidin-2-one] | 177 nM | 10.3 nM | 1.55 nM
[2H]C([2H])([2H])n1cnc2cc(Oc3ccc(Nc4ncnc5ccc(N6CC/C(=C\CN(C)C)C6=O)nc45)cc3C)ccc21 [Compound 119, (E)-3-(2-(dimethylamino)ethylidene)-1-(4-((3-methyl-4-((1-(methyl-d3)-1H-benzo[d]imidazol-5-yl)oxy)phenyl)amino)pyrido[3,2-d]pyrimidin-6-yl)pyrrolidin-2-one] | 521 nM | 15.4 nM | 1.18 nM
Cc1cc(Nc2c(C#N)cnc3ccc(N4CC/C(=C\CN(C)C)C4=O)nc23)ccc1Oc1ccc2c(c1)ncn2C [Compound 124, 6-[(3E)-3-[2-(dimethylamino)ethylidene]-2-oxopyrrolidin-1-yl]-4-({3-methyl-4-[(1-methyl-1,3-benzodiazol-5-yl)oxy]phenyl}amino)-1,5-naphthyridine-3-carbonitrile] | > 10000 nM | 163 nM | 34.2 nM
CN(C)C/C=C1\CCN(c2cc3c(Nc4ccc(Oc5cccnc5)c(F)c4)ncnc3cn2)C1=O [Compound 125, (3E)-3-[2-(dimethylamino)ethylidene]-1-(4-{[3-fluoro-4-(pyridin-3-yloxy)phenyl]amino}pyrido[3,4-d]pyrimidin-6-yl)pyrrolidin-2-one] | 1140 nM | 42.8 nM | 56 nM
CN(C)C/C=C1\CCN(c2ccc3ncnc(Nc4ccc(Oc5cccnc5)c(F)c4)c3n2)C1=O [Compound 126, (3E)-3-[2-(dimethylamino)ethylidene]-1-(4-{[3-fluoro-4-(pyridin-3-yloxy)phenyl]amino}pyrido[3,2-d]pyrimidin-6-yl)pyrrolidin-2-one] | 1110 nM | 99.1 nM | 34 nM
C=C1CCCN(c2cc3c(Nc4ccc(Oc5ccc6c(c5)ncn6C)c(C)c4)ncnc3cn2)C1=O [Compound 127, 1-[4-({3-methyl-4-[(1-methyl-1,3-benzodiazol-5-yl)oxy]phenyl}amino)pyrido[3,4-d]pyrimidin-6-yl]-3-methylidenepiperidin-2-one] | 1200 nM | 27 nM | 24.3 nM
